“Also recorded” adds a separate entry of the source. Where a SMILES comes first, the peptide text is derived from it. Where no end group is shown, it is not given here. [ ]: non-standard residue; d: D form. Tle = CC(C)(C)[C@H](N)C(=O)O
System: monoclonal antibody specific for the natural N-terminal Aβ42 sequence DAEFRH
Assay: Inhibition assay: mimotope peptides compete with plate-bound DAEFRH-BSA for recognition by the biotinylated monoclonal antibody (ELISA)
Format: binding, mice
Set-up: key to inhibition (s/m/—): s: strong inhibition; m: moderate inhibition; —: no inhibition
Conditions: for inhibition of epitope recognition by the monoclonal antibody (in words): FIGS. 2-9; for Inhibitory capacity of mimotopes: summary Tables 1 and 2, in words; for IC50 (inhibition of monoclonal antibody binding to the original epitope): competition ELISA, plate-bound DAEFRH-BSA, peptides 20 min at 37° C.; for inhibition (s/m/—): peptides of the new screening round and 5mers with non natural amino acids
Source text: 1.: Generation of Monoclonal Antibodies (mAb) to Detect Aβ42-Derived Peptide Species with Free N-Terminus (Free Aspartic Acid at the N-Terminus)
Mice are vaccinated with the 6mer peptide DAEFRH (SEQ ID NO: 26) (natural N-terminal Aβ42 sequence) linked to the protein bovine serum albumin BSA (to make use of the hapten-carrier-effect), emulsified in CFA (first injection) and IFA (booster injections). DAEFRH (SEQ ID NO: 26)-peptide-specific, antibody-producing hybridomas are detected by ELISA (DAEFRH (SEQ ID NO: 26)-peptide-coated ELISA plates).
(§1) FIGS. 2 and 3 describe the results of inhibition assays performed with mimotope peptides included in and obtained from the 5 libraries (as described). The mimotope peptides compete with the original epitope for recognition by the monoclonal antibody. Original epitope and mimotope peptides contain an additional C at the C-terminus for coupling to a protein carrier (if desired).
(§2) After blocking with PBS/BSA 1% (200 μl/well, 12 h, 4° C.), the plates are washed 3× times with PBS/Tween. Then, biotinylated monoclonal antibody (1:2000, 50 μl/well) and peptides (50 μl/well) at 50, 5, 0.5, 0.05, 0.005, and 0.0005 μg/ml are added for 20 min. at 37° C. The plates are washed 3× times with PBS/Tween and are incubated with horseradish peroxidase (HRP)-labeled streptavidin (100 μl/well, 30 min, RT). The plates are washed 5× times with PBS/Tween and are incubated with ABTS+H2O2 (0.1% w/v, 10 to 45 min) and the reaction is stopped with citric acid followed by photometric evaluation (wavelength 405 nm).
as §1, with “4” for “2”, “5” for “3”, “C-terminus (position 7)” for “C-terminus”
as §2, with “different concentrations” for “50, 5, 0.5, 0.05, 0.005, and 0.0005 μg/ml”
as §1, with “6 to 8” for “2 and 3”, “2” for “5”, “described above).” for “described).”, “C-terminus (position 7 or position 8, respectively)” for “C-terminus”

Compound | inhibition of epitope recognition by the monoclonal antibody (in words) | Inhibitory capacity of mimotopes | IC50 (inhibition of monoclonal antibody binding to the original epitope) | inhibition (s/m/—) | concentration at which the peptide is only inhibitory (only inhibitory at a (relatively) high concentration) [µg/mL]
CC[C@H](C)[C@H](NC(=O)[C@H](CCCNC(=N)N)NC(=O)[C@H](CC(C)C)NC(=O)[C@H](CCC(=O)O)NC(=O)[C@H](CCCNC(=N)N)NC(=O)[C@@H](N)CC(=O)O)C(=O)N[C@@H](CS)C(=O)O [Peptide 1235, DRELRI] | block epitope recognition | strong |  |  | 
CC[C@H](C)[C@H](NC(=O)[C@H](CCCCN)NC(=O)[C@H](CC(C)C)NC(=O)[C@H](CCC(=O)O)NC(=O)[C@H](CCCCN)NC(=O)[C@@H](N)CC(=O)O)C(=O)N[C@@H](CS)C(=O)O [Peptide 1236, DKELKI] | block epitope recognition | weak |  |  | 
CC[C@H](C)[C@H](NC(=O)[C@H](CCCCN)NC(=O)[C@H](CC(C)C)NC(=O)[C@H](CCC(=O)O)NC(=O)[C@H](CCCNC(=N)N)NC(=O)[C@@H](N)CC(=O)O)C(=O)N[C@@H](CS)C(=O)O [Peptide 1237, DRELKI] | block epitope recognition | weak |  |  | 
N=C(N)NCCC[C@H](NC(=O)[C@H](Cc1ccccc1)NC(=O)[C@H](CCC(=O)O)NC(=O)[C@H](Cc1ccc(O)cc1)NC(=O)[C@@H](N)CCC(=O)O)C(=O)NCC(=O)N[C@@H](CS)C(=O)O [Peptide 1239, EYEFRG] | block epitope recognition | intermediate | more than 0.5 μg/ml |  | 
C[C@H](NC(=O)[C@H](CC(=O)O)NC(=O)[C@H](CCCNC(=N)N)NC(=O)[C@H](Cc1ccccc1)NC(=O)[C@H](CCC(=O)O)NC(=O)[C@H](Cc1c[nH]c2ccccc12)NC(=O)[C@@H](N)CC(=O)O)C(=O)N[C@@H](CS)C(=O)O [Peptide 1241, DWEFRDA] | block epitope recognition | strong |  |  | 
CC[C@H](C)[C@H](NC(=O)[C@H](CCCNC(=N)N)NC(=O)[C@H](CC(C)C)NC(=O)[C@H](CCC(=O)O)NC(=O)[C@H](CCCCN)NC(=O)[C@@H](N)CC(=O)O)C(=O)N[C@@H](CS)C(=O)O [Peptide 3001, DKELRI] | block epitope recognition | strong |  |  | 
CC[C@H](C)[C@H](NC(=O)[C@H](CCCNC(=N)N)NC(=O)[C@H](CC(C)C)NC(=O)[C@H](CCC(=O)O)NC(=O)[C@H](Cc1c[nH]c2ccccc12)NC(=O)[C@@H](N)CC(=O)O)C(=O)N[C@@H](CS)C(=O)O [Peptide 3002, DWELRI] | block epitope recognition | intermediate |  |  | 
C[C@H](NC(=O)[C@@H](N)Cc1ccc(O)cc1)C(=O)N[C@@H](CCC(=O)O)C(=O)N[C@@H](Cc1ccccc1)C(=O)N[C@@H](CCCNC(=N)N)C(=O)NCC(=O)N[C@@H](CS)C(=O)O [Peptide 3005, YAEFRG] | block epitope recognition | intermediate |  |  | 
C[C@H](NC(=O)[C@@H](N)CCC(=O)O)C(=O)N[C@@H](CCC(=O)O)C(=O)N[C@@H](Cc1ccccc1)C(=O)N[C@@H](CCCNC(=N)N)C(=O)NCC(=O)N[C@@H](CS)C(=O)O [Peptide 3006, EAEFRG] | block epitope recognition | strong |  |  | 
N=C(N)NCCC[C@H](NC(=O)[C@H](Cc1ccccc1)NC(=O)[C@H](CCC(=O)O)NC(=O)[C@H](Cc1ccc(O)cc1)NC(=O)[C@@H](N)CC(=O)O)C(=O)NCC(=O)N[C@@H](CS)C(=O)O [Peptide 3007, DYEFRG] | block epitope recognition | strong |  |  | 
CC(C)C[C@H](NC(=O)[C@@H](N)CCC(=O)O)C(=O)N[C@@H](CCC(=O)O)C(=O)N[C@@H](Cc1ccccc1)C(=O)N[C@@H](CCCNC(=N)N)C(=O)NCC(=O)N[C@@H](CS)C(=O)O [Peptide 3008, ELEFRG] |  | weak |  |  | 
N=C(N)NCCC[C@H](NC(=O)[C@H](Cc1ccccc1)NC(=O)[C@H](CCC(=O)O)NC(=O)[C@H](Cc1ccccc1)NC(=O)[C@@H](N)CO)C(=O)NCC(=O)N[C@@H](CS)C(=O)O [Peptide 3009, SFEFRG] |  | weak |  |  | 
C[C@@H](O)[C@H](NC(=O)[C@H](CCCNC(=N)N)NC(=O)[C@H](Cc1ccccc1)NC(=O)[C@H](CCC(=O)O)NC(=O)[C@H](Cc1c[nH]c2ccccc12)NC(=O)[C@@H](N)CO)C(=O)N[C@@H](CS)C(=O)O [Peptide 4002, SWEFRT] | block epitope recognition | strong | less than 0.4 μg/ml |  | 
CCCC[C@H](NC(=O)[C@H](CCC(=O)O)NC(=O)[C@H](CCCCN)NC(=O)[C@@H](N)CC(=O)O)C(=O)N[C@@H](CCCNC(=N)N)C(=O)N[C@@H](CS)C(=O)O [Peptide 4062, DKE(Nle)R] (HELM PEPTIDE1{D.K.E.[Nle].R.C}$$$$V2.0) | block epitope recognition |  |  | m | 
CCC[C@H](NC(=O)[C@H](CCC(=O)O)NC(=O)[C@H](CCCCN)NC(=O)[C@@H](N)CC(=O)O)C(=O)N[C@@H](CCCNC(=N)N)C(=O)N[C@@H](CS)C(=O)O [Peptide 4063, DKE(Nva)R] (HELM PEPTIDE1{D.K.E.[Nva].R.C}$$$$V2.0) | block epitope recognition |  |  | m | 
N=C(N)NCCC[C@H](NC(=O)[C@H](CC1CCCCC1)NC(=O)[C@H](CCC(=O)O)NC(=O)[C@H](CCCCN)NC(=O)[C@@H](N)CC(=O)O)C(=O)N[C@@H](CS)C(=O)O [Peptide 4064, DKEC(Cha)R] | block epitope recognition |  |  | m | 
ATYAYWN [Peptide 4038] | not inhibitory at the concentrations tested |  |  | — | 
DAEFRH (not fully specified (C-terminus); listed as Homo sapiens) [Peptide 1737, reference compound] | inhibits recognition by the monoclonal antibody; also recorded: can successfully compete |  |  |  | 
DAEFRWP [Peptide 4011] | strongly block epitope recognition |  |  | s | 
DIGWRG [Peptide 3011] | not inhibitory at the concentrations tested | none |  |  | 
DISFRG [Peptide 3010] | not inhibitory at the concentrations tested | none |  |  | 
DKE(tBuGly)R (DKE[Tle]R) [Peptide 4061] | not inhibitory at the concentrations tested |  |  | — | 
DNEFRSP [Peptide 4012] | moderately inhibit binding |  |  | s | 
GAEFRFT [Peptide 4014] | moderately inhibit binding |  |  | m | 
GREFRN [Peptide 4003] | block epitope recognition | weak |  |  | 10

Reference: patent publication US8022180B2, “Method for preventing and treating Alzheimer's disease” (Affiris Forschungs-und Entwicklungs GmbH, priority 2004, dated 2011)
